Laboratory results reported in patent EP0414533A1, “Use of iodopropargyl esters of alpha-amino acid derivatives as antimicrobial agents” (ROHM AND HAAS COMPANY, priority 1989, dated 1991).
In brackets after ≈: the same amount, converted by molar mass. Where two headings read alike, the source gives them in different places.

Key:
UST = assay: In-vitro plant fungicide test; type: cell-based; settings: Table IVb, read-out: % Control at (ppm) indicated UST
Fusarium roseum (FUS) = assay: In-vitro plant fungicide test; type: cell-based; settings: Fusarium sambucinum
[1] = tested on: MIXED COOLING TOWER ALGAE; assay: MIC test against mixed cooling tower algae; type: cell-based, green algae and blue-green bacteria; settings: Table VIII
Protocol: The algae culture contains green algae and blue-green bacteria, and is obtained from a cooling tower in Spring House, Pennsylvania. The algae culture is grown in Allen's medium on a rotary shaker under flourescent room lighting. This culture is further diluted with Allen's medium and then added to the test vessel.

Aspergillus niger (ANIG) = assay: Minimum inhibitory concentration (MIC), broth two-fold serial dilution test; type: cell-based; settings: Aspergillus niger, IIIB, trypticase soy broth (complex media); Table IIIb; read-out: MIC (F) ANIG
PSH = assay: In-vitro plant fungicide test; type: cell-based; settings: Table IVb, read-out: % Control at (ppm) indicated PSH
8 FUNGI = assay: Microbicides secondary test against 8 fungi on Mycophile Agar at pH 5.0 (Table VI); type: cell-based; set-up: key: 1= no growth; 0= growth of the indicated fungi at dose indicated in ppm; settings: for ANIG growth: Aspergillus niger; for APUL growth: Aureobasidium pullulans; for CGLO growth: Chaetomium globosum; for CRES growth: Cladosporium resinae; for GTRA growth: Gloeophyllum trabeum; for PFUN growth: Penicillium funiculosum; for RRUB growth: Rhodotorula rubra; for SSER growth: Sacharomyces cerevisiae
Source text: The results of the minimum inhibitory concentration (MIC) tests of compounds of this invention are shown in Tables IIIa IIIb, IIIc, V, VI, VII, and VIII against the microorganisms shown in Table IX.

Septoria nodorum (SEP) = assay: In-vitro plant fungicide test; type: cell-based; settings: Parastagonospora nodorum
THREE FUNGI = assay: MIC test against three fungi in Mycophile Broth, pH 5.0, read after 8 days (Table VII); type: cell-based; settings: 192 h, serial dilutions from 50 ppm, read after 8 days of incubation
[2] = tested on: Xanthomonas campestris (XAN); assay: In-vitro plant fungicide test; type: cell-based; settings: Xanthomonas campestris; 25 ppm; Table IVa; read-out: % Control at 25 ppm XAN
Rhizoctonia solani (RHI) = assay: In-vitro plant fungicide test; type: cell-based; settings: Rhizoctonia solani
[3] = tested on: Pseudomonas aerugenosa (PSAE); assay: Minimum inhibitory concentration (MIC), broth two-fold serial dilution test; settings: Pseudomonas, IIIB, read-out: MIC (G-) PSAE, trypticase soy broth (complex media); Table IIIb
Source text: (§1) When the test is ready to be done, each vessel in the dilution series, except the first vessel, contains an equal volume of compound free broth. The first vessel contains twice the volume of broth with the starting concentration of test compound. One half of the broth from the first vessel is transferred to the second vessel. After being mixed, one half the resulting volume is removed from the second vessel and transferred to the third vessel. The entire cycle is repeated sufficiently to give a series of concentrations amounting to 500, 250, 125, 63, 31, 16, 8, and 4 ppm (or 100, 50, 25, 12.5, 6.2, 3.1, 1.6, and 0.8), respectively.
(§2) Each vessel is then inoculated with a cell suspension of the appropriate test organism. Bacteria are grown in broth, fungi on agar slants for a time and at a temperature appropriate to the species being tested, and algae are a mixture of green algae and blue-green bacteria grown in a nutrient media. At the end of the growth period, in the case of bacteria, the broth is vortexed to disperse the cells.
(§3) The vessels are then incubated at the appropriate temperature. After the incubation, the vessels are examined for growth/no growth.

Piricularia oryzae (PIR) = assay: microbe, parasite or virus in culture; type: cell-based
[4] = tested on: Phytophthora capsici (PHY); assay: In-vitro plant fungicide test; type: cell-based; settings: Phytophthora capsici
[5] = tested on: Staphylococcus aureus (SAUR); assay: Minimum inhibitory concentration (MIC), broth two-fold serial dilution test; settings: Staphylococcus aureus, IIIB, read-out: MIC (G+) SAUR, trypticase soy broth (complex media); Table IIIb
Source text: as §1, §2, §3

ALT = assay: In-vitro plant fungicide test; type: cell-based; settings: Table IVb, read-out: % Control at (ppm) indicated ALT

In the case of CC(=O)NCC(=O)OCC#CI [Compound 28, N-acetylglycine iodopropargyl ester], the inhibition of growth at 1.5 ppm (UST; 1.5 ppm) is reported as 50%, the inhibition of growth at 3 ppm (UST; 3 ppm) is reported as 100% and the inhibition of growth at 6 ppm (UST; 6 ppm) is reported as 100%. It also gave an inhibition of growth at 12 ppm (UST; 12 ppm) of 100%, an inhibition of growth at 25 ppm (UST; 25 ppm) of 100% and an inhibition of growth at 0.2 ppm (UST; .2 ppm) of 0%. The inhibition of growth at 0.4 ppm (UST; .4 ppm) was 0%, the inhibition of growth at 0.8 ppm (UST; .8 ppm) was 0% and the inhibition of growth at 25 ppm (Fusarium roseum (FUS); read-out: % Control at 25 ppm FUS, 25 ppm, Table IVa, *=Phytotoxic) was 100%. It also gave an inhibition of growth at 1.5 ppm (Fusarium roseum (FUS); read-out: % Control at (ppm) indicated FUS, 1.5 ppm, Table IVb) of 0%, an inhibition of growth at 3 ppm (Fusarium roseum (FUS); read-out: % Control at (ppm) indicated FUS, 3 ppm, Table IVb) of 0% and an inhibition of growth at 6 ppm (Fusarium roseum (FUS); read-out: % Control at (ppm) indicated FUS, 6 ppm, Table IVb) of 0%. The inhibition of growth at 12 ppm (Fusarium roseum (FUS); read-out: % Control at (ppm) indicated FUS, 12 ppm, Table IVb) was 100%, the inhibition of growth at 25 ppm (Fusarium roseum (FUS); read-out: % Control at (ppm) indicated FUS, 25 ppm, Table IVb) was 100% and the inhibition of growth at 0.2 ppm (Fusarium roseum (FUS); read-out: % Control at (ppm) indicated FUS, .2 ppm, Table IVb) was 0%. The inhibition of growth at 0.4 ppm (Fusarium roseum (FUS); read-out: % Control at (ppm) indicated FUS, .4 ppm, Table IVb) was 0%, the inhibition of growth at 0.8 ppm (Fusarium roseum (FUS); read-out: % Control at (ppm) indicated FUS, .8 ppm, Table IVb) was 0% and the MIC [1] was 6.2 µg/mL (≈ 22.1 µM). For the same compound, the MIC (Aspergillus niger (ANIG)) was 2 µg/mL (≈ 7.12 µM), the inhibition of growth at 1.5 ppm (PSH; 1.5 ppm) was 95% and the inhibition of growth at 6 ppm (PSH; 6 ppm) was 100%. For the same compound, the inhibition of growth at 25 ppm (PSH; 25 ppm) was 100%, the inhibition of growth at 0.2 ppm (PSH; .2 ppm) was 0% and the inhibition of growth at 0.4 ppm (PSH; .4 ppm) was 0%. The inhibition of growth at 0.8 ppm (PSH; .8 ppm) was 0%, the ANIG growth (8 FUNGI; 0.2 PPM) was 0 and the ANIG growth (8 FUNGI; 1.0 PPM) was 0. The ANIG growth (8 FUNGI; 2.5 PPM) was 0, the ANIG growth (8 FUNGI; 25 PPM) was 1 and the APUL growth (8 FUNGI; 0.2 PPM) was 0. For the same compound, the APUL growth (8 FUNGI; 1.0 PPM) was 0, the APUL growth (8 FUNGI; 2.5 PPM) was 0 and the APUL growth (8 FUNGI; 25 PPM) was 1. The CGLO growth (8 FUNGI; 0.2 PPM) was 0, the CGLO growth (8 FUNGI; 1.0 PPM) was 0 and the CGLO growth (8 FUNGI; 2.5 PPM) was 0. The CGLO growth (8 FUNGI; 25 PPM) was 1, the CRES growth (8 FUNGI; 0.2 PPM) was 0 and the CRES growth (8 FUNGI; 1.0 PPM) was 0. For the same compound, the CRES growth (8 FUNGI; 2.5 PPM) was 0, the CRES growth (8 FUNGI; 25 PPM) was 1 and the GTRA growth (8 FUNGI; 0.2 PPM) was 0. It also gave a GTRA growth (8 FUNGI; 1.0 PPM) of 0, a GTRA growth (8 FUNGI; 2.5 PPM) of 0 and a GTRA growth (8 FUNGI; 25 PPM) of 1. For the same compound, the PFUN growth (8 FUNGI; 0.2 PPM) was 0, the PFUN growth (8 FUNGI; 1.0 PPM) was 0 and the PFUN growth (8 FUNGI; 2.5 PPM) was 0. It also gave a PFUN growth (8 FUNGI; 25 PPM) of 1, an RRUB growth (8 FUNGI; 0.2 PPM) of 0 and an RRUB growth (8 FUNGI; 1.0 PPM) of 0. It also gave an RRUB growth (8 FUNGI; 2.5 PPM) of 0, an RRUB growth (8 FUNGI; 25 PPM) of 1 and an SSER growth (8 FUNGI; 0.2 PPM) of 0. The SSER growth (8 FUNGI; 1.0 PPM) was 0, the SSER growth (8 FUNGI; 2.5 PPM) was 0 and the SSER growth (8 FUNGI; 25 PPM) was 1. For the same compound, the inhibition of growth at 1.5 ppm (Septoria nodorum (SEP); 1.5 ppm, Table IVb, read-out: % Control at (ppm) indicated SEP) was 0%, the inhibition of growth at 6 ppm (Septoria nodorum (SEP); 6 ppm, Table IVb, read-out: % Control at (ppm) indicated SEP) was 0% and the inhibition of growth at 25 ppm (Septoria nodorum (SEP); Table IVa, read-out: % Control at 25 ppm SEP) was 100%. It also gave an inhibition of growth at 25 ppm (Septoria nodorum (SEP); Table IVb, read-out: % Control at (ppm) indicated SEP) of 100%, an inhibition of growth at 0.2 ppm (Septoria nodorum (SEP); .2 ppm, Table IVb, read-out: % Control at (ppm) indicated SEP) of 0% and an inhibition of growth at 0.4 ppm (Septoria nodorum (SEP); .4 ppm, Table IVb, read-out: % Control at (ppm) indicated SEP) of 0%. The inhibition of growth at 0.8 ppm (Septoria nodorum (SEP); .8 ppm, Table IVb, read-out: % Control at (ppm) indicated SEP) was 0%, the MIC (THREE FUNGI; Aspergillus niger, read-out: MIC ANIG) was 12.5 µg/mL (≈ 44.5 µM) and the MIC (THREE FUNGI; Aureobasidium pullulans, read-out: MIC APUL) was 50 µg/mL (≈ 178 µM). For the same compound, the MIC (THREE FUNGI; Gloeophyllum trabeum, read-out: MIC GTRA) was 6.2 µg/mL (≈ 22.1 µM), the inhibition of growth at 25 ppm [2] was 50% and the inhibition of growth at 1.5 ppm (Rhizoctonia solani (RHI); 1.5 ppm, Table IVb, read-out: % Control at (ppm) indicated RHI) was 100%. The inhibition of growth at 6 ppm (Rhizoctonia solani (RHI); 6 ppm, Table IVb, read-out: % Control at (ppm) indicated RHI) was 100%, the inhibition of growth at 25 ppm (Rhizoctonia solani (RHI); Table IVa, read-out: % Control at 25 ppm RHI) was 100% and the inhibition of growth at 25 ppm (Rhizoctonia solani (RHI); Table IVb, read-out: % Control at (ppm) indicated RHI) was 100%. It also gave an inhibition of growth at 0.2 ppm (Rhizoctonia solani (RHI); .2 ppm, Table IVb, read-out: % Control at (ppm) indicated RHI) of 0%, an inhibition of growth at 0.4 ppm (Rhizoctonia solani (RHI); .4 ppm, Table IVb, read-out: % Control at (ppm) indicated RHI) of 0% and an inhibition of growth at 0.8 ppm (Rhizoctonia solani (RHI); .8 ppm, Table IVb, read-out: % Control at (ppm) indicated RHI) of 0%. It also gave an MIC [3] of 63 µg/mL (≈ 224 µM), an inhibition of growth at 1.5 ppm (Piricularia oryzae (PIR); 1.5 ppm, read-out: % Control at (ppm) indicated PIR) of 0% and an inhibition of growth at 6 ppm (Piricularia oryzae (PIR); 6 ppm, read-out: % Control at (ppm) indicated PIR) of 100%. The inhibition of growth at 25 ppm (Piricularia oryzae (PIR); 25 ppm, read-out: % Control at (ppm) indicated PIR) was 100%, the inhibition of growth at 0.2 ppm (Piricularia oryzae (PIR); .2 ppm, read-out: % Control at (ppm) indicated PIR) was 0% and the inhibition of growth at 0.4 ppm (Piricularia oryzae (PIR); .4 ppm, read-out: % Control at (ppm) indicated PIR) was 0%. It also gave an inhibition of growth at 0.8 ppm (Piricularia oryzae (PIR); .8 ppm, read-out: % Control at (ppm) indicated PIR) of 0%, an inhibition of growth at 25 ppm (Piricularia oryzae (PIR); read-out: % Control at 25 ppm PIR) of 100% and an inhibition of growth at 1.5 ppm ([4]; 1.5 ppm, Table IVb, read-out: % Control at (ppm) indicated PHY) of 0%. The inhibition of growth at 6 ppm ([4]; 6 ppm, Table IVb, read-out: % Control at (ppm) indicated PHY) was 100%, the inhibition of growth at 25 ppm ([4]; Table IVa, read-out: % Control at 25 ppm PHY) was 100% and the inhibition of growth at 25 ppm ([4]; Table IVb, read-out: % Control at (ppm) indicated PHY) was 100%. The inhibition of growth at 0.2 ppm ([4]; .2 ppm, Table IVb, read-out: % Control at (ppm) indicated PHY) was 0%, the inhibition of growth at 0.4 ppm ([4]; .4 ppm, Table IVb, read-out: % Control at (ppm) indicated PHY) was 0% and the inhibition of growth at 0.8 ppm ([4]; .8 ppm, Table IVb, read-out: % Control at (ppm) indicated PHY) was 0%. It also gave an MIC [5] of 63 µg/mL (≈ 224 µM), an inhibition of growth at 1.5 ppm (ALT; 1.5 ppm) of 0% and an inhibition of growth at 3 ppm (ALT; 3 ppm) of 0%. It also gave an inhibition of growth at 6 ppm (ALT; 6 ppm) of 75%, an inhibition of growth at 12 ppm (ALT; 12 ppm) of 100% and an inhibition of growth at 25 ppm (ALT; 25 ppm) of 100%. It also gave an inhibition of growth at 0.2 ppm (ALT; .2 ppm) of 0%, an inhibition of growth at 0.4 ppm (ALT; .4 ppm) of 0% and an inhibition of growth at 0.8 ppm (ALT; .8 ppm) of 0%.
